# Laboratory results from patent US20260013501A1, “HERBICIDAL DERIVATIVES” (SYNGENTA CROP PROTECTION AG, priority 2022, published 2026).
# How the values were obtained:
# Assay type in all cases: in vivo
# Settings in all cases: evaluated after 13 days
# Zea mays (ZEAMX) [1] = experiment: Post-emergence Test (Table B2), ZEAMX; parameters: key: 5-point damage scale: 5=81-100%, 4=61-80%, 3=41-60%, 2=21-40%, 1=0-20%
# Method: Seeds of a variety of test species are sown in standard soil in pots (Ipomoea hederacea (IPOHE), Zea mays (ZEAMX), Echinochloa crus-galli (ECHCG), Amaranthus palmeri (AMAPA), (Amaranthus retoflexus (AMARE), and (Setaria faberi (SETFA)). After 8 days cultivation under controlled conditions in a glasshouse (at 24° C./16° C., day/night; 14 hours light; 65% humidity), the plants are sprayed with an aqueous spray solution derived from the formulation of the technical active ingredient in acetone/water (50:50) solution containing 0.5% Tween 20 (polyoxyethelyene sorbitan monolaurate, CAS RN 9005-64-5). Rate of application is shown in g/ha in the tables below. The test plants are then grown in a glasshouse under controlled conditions in a glasshouse (at 24° C./16° C., day/night; 14 hours light; 65% humidity) and watered twice daily. After 13 days the test is evaluated for the percentage damage caused to the plant. The biological activities are shown in the following table on a five-point scale (5=81-100%; 4=61-80%; 3=41-60%; 2=21-40%; 1=0-20%; -=not tested).
# [2] = system: Amaranthus palmeri (AMAPA); experiment: Pre-emergence Test (Table B1), AMAPA
# [3] = system: Amaranthus retoflexus (AMARE); experiment: Pre-emergence Test (Table B1), AMARE
# Zea mays (ZEAMX) [4] = experiment: Pre-emergence Test (Table B1), ZEAMX
smiles,measurement,setting,value
"CCn1c(Cc2cccc(Cl)c2)cc(=O)c(C(=O)O)c1-c1ccc(Cl)c(Cl)c1 [Compound 1, 6-[(3-chlorophenyl)methyl]-2-(3,4-dichlorophenyl)-1-ethyl-4-oxo-pyridine-3-carboxylic acid]","percentage damage caused to the plant, ZEAMX",Zea mays (ZEAMX) [1]; rate 1000 g/Ha,0
"CCn1c(Cc2ncc(Cl)cn2)cc(=O)c(C(=O)O)c1-c1ccc(Cl)c(Cl)c1 [Compound 4, 6-[(5-chloropyrimidin-2-yl)methyl]-2-(3,4-dichlorophenyl)-1-ethyl-4-oxo-pyridine-3-carboxylic acid]","Pre-emergence Test, percentage damage caused to the plant (five-point scale), AMAPA",[2]; Rate 1000 g/Ha,0
"CCn1c(Cc2ccc(F)cc2)cc(=O)c(C(=O)O)c1-c1ccc(Cl)c(Cl)c1 [Compound 12, 2-(3,4-dichlorophenyl)-1-ethyl-6-[(4-fluorophenyl)methyl]-4-oxo-pyridine-3-carboxylic acid]","Pre-emergence Test, percentage damage caused to the plant (five-point scale), AMARE",[3]; Rate 1000 g/Ha,0
same,"percentage damage caused to the plant, ZEAMX",Zea mays (ZEAMX) [1]; rate 1000 g/Ha,0
"CCn1c(Cc2nccs2)cc(=O)c(C(=O)O)c1-c1ccc(Cl)c(Cl)c1 [Compound 19, 2-(3,4-dichlorophenyl)-1-ethyl-4-oxo-6-(thiazol-2-ylmethyl)pyridine-3-carboxylic acid]","Pre-emergence Test, percentage damage caused to the plant (five-point scale), AMARE",[3]; Rate 1000 g/Ha,0
same,"Pre-emergence Test, percentage damage caused to the plant (five-point scale), AMAPA",[2]; Rate 1000 g/Ha,0
"CCn1c(Cc2cc(F)cc(F)c2)cc(=O)c(C(=O)O)c1-c1ccc(Cl)c(Cl)c1 [Compound 29, 2-(3,4-dichlorophenyl)-6-[(3,5-difluorophenyl)methyl]-1-ethyl-4-oxo-pyridine-3-carboxylic acid]","Pre-emergence Test, percentage damage caused to the plant (five-point scale), AMARE",[3]; Rate 1000 g/Ha,0
same,"percentage damage caused to the plant, ZEAMX",Zea mays (ZEAMX) [1]; rate 1000 g/Ha,0
same,"Pre-emergence Test, percentage damage caused to the plant (five-point scale), ZEAMX",Zea mays (ZEAMX) [4]; Rate 1000 g/Ha,0
same,"Pre-emergence Test, percentage damage caused to the plant (five-point scale), AMAPA",[2]; Rate 1000 g/Ha,0
"CCn1c(Cc2cccc(OC(F)(F)F)c2)cc(=O)c(C(=O)O)c1-c1ccc(Cl)c(Cl)c1 [Compound 30, 2-(3,4-dichlorophenyl)-1-ethyl-4-oxo-6-[[3-(trifluoromethoxy)phenyl]methyl]pyridine-3-carboxylic acid]","percentage damage caused to the plant, ZEAMX",Zea mays (ZEAMX) [1]; rate 1000 g/Ha,0
"CCn1c(Cc2cccc(C(F)(F)F)n2)cc(=O)c(C(=O)O)c1-c1ccc(Cl)c(Cl)c1 [Compound 39, 2-(3,4-dichlorophenyl)-1-ethyl-4-oxo-6-[[6-(trifluoromethyl)-2-pyridyl]methyl]pyridine-3-carboxylic acid]","Pre-emergence Test, percentage damage caused to the plant (five-point scale), AMAPA",[2]; Rate 1000 g/Ha,0
"CCn1c(Cc2ccnc(F)c2)cc(=O)c(C(=O)O)c1-c1ccc(Cl)c(Cl)c1 [Compound 44, 2-(3,4-dichlorophenyl)-1-ethyl-6-[(2-fluoro-4-pyridyl)methyl]-4-oxo-pyridine-3-carboxylic acid]","Pre-emergence Test, percentage damage caused to the plant (five-point scale), ZEAMX",Zea mays (ZEAMX) [4]; Rate 250 g/Ha,0
"CCn1c(Cc2ccn(C3CC3)n2)cc(=O)c(C(=O)O)c1-c1ccc(Cl)c(Cl)c1 [Compound 54, 6-[(1-cyclopropylpyrazol-3-yl)methyl]-2-(3,4-dichlorophenyl)-1-ethyl-4-oxo-pyridine-3-carboxylic acid]","Pre-emergence Test, percentage damage caused to the plant (five-point scale), AMARE",[3]; Rate 1000 g/Ha,0
same,"Pre-emergence Test, percentage damage caused to the plant (five-point scale), AMAPA",[2]; Rate 1000 g/Ha,0
"CCn1c(Cc2cccc(C#N)n2)cc(=O)c(C(=O)O)c1-c1ccc(Cl)c(Cl)c1 [Compound 57, 6-[(6-cyano-2-pyridyl)methyl]-2-(3,4-dichlorophenyl)-1-ethyl-4-oxo-pyridine-3-carboxylic acid]","percentage damage caused to the plant, ZEAMX",Zea mays (ZEAMX) [1]; rate 1000 g/Ha,0
"CCn1c(Cc2ccc(OC)cc2C(F)(F)F)cc(=O)c(C(=O)O)c1-c1ccc(Cl)c(Cl)c1 [Compound 65, 2-(3,4-dichlorophenyl)-1-ethyl-6-[[4-methoxy-2-(trifluoromethyl)phenyl]methyl]-4-oxo-pyridine-3-carboxylic acid]","Pre-emergence Test, percentage damage caused to the plant (five-point scale), ZEAMX",Zea mays (ZEAMX) [4]; Rate 1000 g/Ha,0
"CCn1c(Cc2ccc(F)c(OC)c2)cc(=O)c(C(=O)O)c1-c1ccc(Cl)c(Cl)c1 [Compound 95, 2-(3,4-dichlorophenyl)-1-ethyl-6-[(4-fluoro-3-methoxy-phenyl)methyl]-4-oxo-pyridine-3-carboxylic acid]","Pre-emergence Test, percentage damage caused to the plant (five-point scale), AMARE",[3]; Rate 1000 g/Ha,0
same,"Pre-emergence Test, percentage damage caused to the plant (five-point scale), ZEAMX",Zea mays (ZEAMX) [4]; Rate 1000 g/Ha,0
same,"Pre-emergence Test, percentage damage caused to the plant (five-point scale), AMAPA",[2]; Rate 1000 g/Ha,0
"CCn1c(Cc2ccc(C)c(Cl)n2)cc(=O)c(C(=O)O)c1-c1ccc(Cl)c(Cl)c1 [Compound 97, 6-[(6-chloro-5-methyl-2-pyridiyl)methyl]-2-(3,4-dichlorophenyl)-1-ethyl-4-oxo-pyridine-3-carboxylic acid]","Pre-emergence Test, percentage damage caused to the plant (five-point scale), AMARE",[3]; Rate 1000 g/Ha,0
same,"Pre-emergence Test, percentage damage caused to the plant (five-point scale), AMAPA",[2]; Rate 1000 g/Ha,0
"CCn1c(Cc2nc(Cl)ccc2COC)cc(=O)c(C(=O)O)c1-c1ccc(Cl)c(Cl)c1 [Compound 105, 6-[[6-chloro-3-(methoxymethyl)-2-pyridyl]methyl]-2-(3,4-dichlorophenyl)-1-ethyl-4-oxo-pyridine-3-carboxylic acid]","Pre-emergence Test, percentage damage caused to the plant (five-point scale), AMARE",[3]; Rate 250 g/Ha,0
same,"Pre-emergence Test, percentage damage caused to the plant (five-point scale), AMAPA",[2]; Rate 250 g/Ha,0
"CCn1c(Cc2ccc(C(F)F)nn2)cc(=O)c(C(=O)O)c1-c1ccc(Cl)c(Cl)c1 [Compound 108, 2-(3,4-dichlorophenyl)-6-[[6-(difluoromethyl)-pyridazin-3-yl]methyl]-1-ethyl-4-oxo-pyridine-3-carboxylic acid]","Pre-emergence Test, percentage damage caused to the plant (five-point scale), AMARE",[3]; Rate 1000 g/Ha,0
same,"Pre-emergence Test, percentage damage caused to the plant (five-point scale), ZEAMX",Zea mays (ZEAMX) [4]; Rate 1000 g/Ha,0
same,"Pre-emergence Test, percentage damage caused to the plant (five-point scale), AMAPA",[2]; Rate 1000 g/Ha,0
"CCn1c(Cc2cc(C(F)F)ccn2)cc(=O)c(C(=O)O)c1-c1ccc(Cl)c(Cl)c1 [Compound 115, 2-(3,4-dichlorophenyl)-6-[[4-(difluoromethyl)-2-pyridyl]methyl]-1-ethyl-4-oxo-pyridine-3-carboxylic acid]","Pre-emergence Test, percentage damage caused to the plant (five-point scale), ZEAMX",Zea mays (ZEAMX) [4]; Rate 250 g/Ha,0
"CCn1c(Cc2cc(Cl)ccn2)cc(=O)c(C(=O)O)c1-c1ccc(Cl)c(Cl)c1 [Compound 117, 6-[(4-chloro-2-pyridyl)methyl]-2-(3,4-dichlorophenyl)-1-ethyl-4-oxo-pyridine-3-carboxylic acid]","percentage damage caused to the plant, ZEAMX",Zea mays (ZEAMX) [1]; rate 62.5 g/Ha,0
same,"Pre-emergence Test, percentage damage caused to the plant (five-point scale), ZEAMX",Zea mays (ZEAMX) [4]; Rate 62.5 g/Ha,0
"CCn1c(Cc2ccn(CC(C)C)n2)cc(=O)c(C(=O)O)c1-c1ccc(Cl)c(Cl)c1 [Compound 121, 2-(3,4-dichlorophenyl)-1-ethyl-6-[(1-isobutylpyrazol-3-yl)methyl]-4-oxo-pyridine-3-carboxylic acid]","Pre-emergence Test, percentage damage caused to the plant (five-point scale), ZEAMX",Zea mays (ZEAMX) [4]; Rate 250 g/Ha,0
"CCn1c(Cc2ccn(C(F)F)n2)cc(=O)c(C(=O)O)c1-c1ccc(Cl)c(Cl)c1 [Compound 124, 2-(3,4-dichlorophenyl)-6-[[1-(difluoromethyl)pyrazol-3-yl]methyl]-1-ethyl-4-oxo-pyridine-3-carboxylic acid]","Pre-emergence Test, percentage damage caused to the plant (five-point scale), AMARE",[3]; Rate 62.5 g/Ha,0
same,"Pre-emergence Test, percentage damage caused to the plant (five-point scale), ZEAMX",Zea mays (ZEAMX) [4]; Rate 62.5 g/Ha,0
same,"Pre-emergence Test, percentage damage caused to the plant (five-point scale), AMAPA",[2]; Rate 62.5 g/Ha,0
"CCn1c(Cc2ccc(Cl)nc2)cc(=O)c(C(=O)O)c1-c1ccc(Cl)c(Cl)c1 [Compound 129, 6-[(6-chloro-3-pyridyl)methyl]-2-(3,4-dichlorophenyl)-1-ethyl-4-oxo-pyridine-3-carboxylic acid]","percentage damage caused to the plant, ZEAMX",Zea mays (ZEAMX) [1]; rate 250 g/Ha,0
same,"Pre-emergence Test, percentage damage caused to the plant (five-point scale), AMAPA",[2]; Rate 250 g/Ha,0
"CCn1c(Cc2ccc(OC)nn2)cc(=O)c(C(=O)O)c1-c1ccc(Cl)c(Cl)c1 [Compound 133, 2-(3,4-dichlorophenyl)-1-ethyl-6-[(6-methoxypyridazin-3-yl)methyl]-4-oxo-pyridine-3-carboxylic acid]","Pre-emergence Test, percentage damage caused to the plant (five-point scale), ZEAMX",Zea mays (ZEAMX) [4]; Rate 250 g/Ha,0
"CCn1c(Cc2cccc(Br)n2)cc(=O)c(C(=O)O)c1-c1ccc(Cl)c(Cl)c1 [Compound 138, 6-[(6-bromo-2-pyridyl)methyl]-2-(3,4-dichlorophenyl)-1-ethyl-4-oxo-pyridine-3-carboylic acid]","Pre-emergence Test, percentage damage caused to the plant (five-point scale), ZEAMX",Zea mays (ZEAMX) [4]; Rate 250 g/Ha,0
"CCn1c(Cc2ccnc(C(F)(F)F)n2)cc(=O)c(C(=O)O)c1-c1ccc(Cl)c(Cl)c1 [Compound 141, 2-(3,4-dichlorophenyl)-1-ethyl-4-oxo-6-[[2-(trifluoromethyl)pyrimidin-4-yl]methyl]pyridine-3-carboxylic acid]","Pre-emergence Test, percentage damage caused to the plant (five-point scale), ZEAMX",Zea mays (ZEAMX) [4]; Rate 250 g/Ha,0
same,"Pre-emergence Test, percentage damage caused to the plant (five-point scale), AMAPA",[2]; Rate 250 g/Ha,0
"CCn1c(Cc2cccc(C(C)F)n2)cc(=O)c(C(=O)O)c1-c1ccc(Cl)c(Cl)c1 (stereo not shown) [Compound 147, 2-(3,4-dichlorophenyl)-1-ethyl-6-[[6-(1-fluoroethyl)-2-pyridyl]methyl]-4-oxo-pyridine-3-carboxylic acid]","Pre-emergence Test, percentage damage caused to the plant (five-point scale), AMAPA",[2]; Rate 250 g/Ha,0
"CCn1c(Cc2ccon2)cc(=O)c(C(=O)O)c1-c1ccc(Cl)c(Cl)c1 [Compound 149, 2-(3,4-dichlorophenyl)-1-ethyl-6-(isoxazol-3-ylmethyl)-4-oxo-pyridine-3-carboxylic acid]","percentage damage caused to the plant, ZEAMX",Zea mays (ZEAMX) [1]; rate 250 g/Ha,0
same,"Pre-emergence Test, percentage damage caused to the plant (five-point scale), ZEAMX",Zea mays (ZEAMX) [4]; Rate 250 g/Ha,0
